Where two headings read alike, the source gives them in different places.
Assay: Lymph node localization of AMP adjuvants in female BALB/c mice (LC-MS)
Type: in vivo
Details: mouse, 2 nmol intramuscular; for concentration at 4 h: 4 h post injection; for concentration at 48 h: 48 h post injection
Description: Test compounds were prepared at a concentration of 40 uM in phosphate-buffered saline (pH 7.4)+0.1% polysorbate 80, and 50 uL (2 nmol) of each was administered by intramuscular injection into the right hind leg muscle (gastrocnemius) of female BALB/c mice. Lymph nodes (popliteal, inguinal) were collected from 5 mice per group at 4 h and 48 h post injection, snap frozen in liquid nitrogen, and stored at −80C until analysis. Blood was also collected via cardiac puncture at 4 h and 48 h post injection and centrifuged in EDTA-coated tubes to yield plasma which was stored at −80C until analysis. AMP adjuvant concentrations in each sample were quantified by liquid chromatography-mass spectrometry (LC-MS).
A standard curve containing the test compound was prepared in control mouse plasma before extraction with protein precipitation. Muscle samples were weighed and diluted in 4× 60:40 Isopropanol (IPA):Water. Lymph node samples were assumed to be 1 mg and were diluted 50× in […] 60:40 IPA:Water. Zirconium beads were added to tissue samples, followed by shaking in a bead beater to yield tissue homogenate. For plasma analysis, 20 ml of test sample or standard was added followed by 120 ml of acetonitrile containing internal standard (Simvastatin at 300 ng/ml). Tissue homogenate was prepared for analysis using a mixed matrix approach where test tissue samples (20 ml) were matrix matched with control plasma, and a plasma standard curve was matrixed matched with control mouse tissue. Internal standard was added as described above. Samples were vortexed for 1 min, then centrifuged at 3000 rpm for 5 min. 50 ml of supernatant was removed and transferred to a clean 96 well block, 150 ml of 0.1% formic acid in water was added, block was vortexed, centrifuged and 15 ml was injected on the LC/MS for analysis.
An initial mobile phase composition of 5% B was ramped to 95% in 2.0 minutes, held at 95% for 0.3 minutes, and then returned to initial 5% B for 0.3 minutes re-equilibration. The total analysis time for each sample was 3 minutes.
Data was collected on an AB Sciex API6500 (QTRAP) mass spectrometer using positive Turbo IonSpray™ electrospray ionization (ESI) and multiple reaction monitoring (MRM) mode. Typical source conditions, heated capillary temperature, gas1, gas2, and curtain gas were set at 600C, 50, 50, and 10 respectively. Transitions for Compound 1, Compound 2, and internal standard Simvastatin were m/z 1129® 923 for Compound 1, m/z 1172® 956 for Compound 2 and m/z 419® 285 for internal standard Simvastatin respectively. Data acquisition and processing was carried out with Analyst software version 1.7.

[1] = inguinal lymph node, read-out: concentration in the inguinal lymph node
[2] = plasma, read-out: concentration in plasma
[3] = popliteal lymph node, read-out: concentration in the popliteal lymph node

For `CCCCc1nc2c(N)nc3cc(CCCN4CCN(C(=O)CCOCCOCCOCCOCCOCCOCCOCCOCCOCCOCCOCCOCCOCCOCCOCCOCCOCCOCCOCCOCCOCCOCCOCCOCCNC(=O)CCOCCOCCOCCOCCNC(=O)CCCOc5c(C)c(C)c6c(c5C)CC[C@@](C)(CCC[C@H](C)CCC[C@H](C)CCCC(C)C)O6)CC4)ccc3c2n1CC(C)(CO)CO` [Compound 2, N-{75-[4-(3-{4-amino-2-butyl-1-[3-hydroxy-2-(hydroxymethyl)-2-methylpropyl]-1H-imidazo[4,5-c]quinolin-7-yl}propyl)piperazin-1-yl]-75-oxo-3,6,9,12,15,18,21,24,27,30,33,36,39,42,45,48,51,54,57,60,63,66,69,72-tetracosaoxapentaheptacont-1-yl}-17-oxo-20-({(2R)-2,5,7,8-tetramethyl-2-[(4R,8R)-4,8,12-trimethyltridecyl]-3,4-dihydro-2H-chromen-6-yl}oxy)-4,7,10,13-tetraoxa-16-azaicosan-1-amide], which concentration at 4 h [1] is on record?
Its concentration at 4 h is 16600 ± 6920 ng/g.

What about the concentration at 48 h [1] of the same molecule?
Its concentration at 48 h is 17000 ± 3320 ng/g.

What about the concentration at 4 h [2] of the same molecule?
The concentration at 4 h was 1100 ± 305 ng/mL.

And the concentration at 48 h [2]?
The concentration at 48 h was < 25 ng/mL.

What about the concentration at 4 h [3] of the same molecule?
The concentration at 4 h was 35300 ± 16800 ng/g.

What about the concentration at 48 h [3] of the same molecule?
The concentration at 48 h was 23200 ± 7820 ng/g.

Reference: patent US20250135006A1, “AMPHIPHILIC TLR7/8 ADJUVANTS AND USES THEREOF” (Pfizer Inc., priority 2023, published 2025)
